The values below are quoted from earlier work in publication PMC8537988, “Re-Use of Caco-2 Monolayers in Permeability Assays—Validation Regarding Cell Monolayer Integrity” (Pharmaceutics, 2021).

Series [1] has as its system transporters in the membrane (influx or efflux). Details: method as in PMID 9213361. Conditions: cited from earlier work.
Another series has as its system Caco-2 monolayers. Further details: method as in PMID 34247356. Conditions: day 23 post-seeding, 90 min sampling interval; cited from earlier work.

Turning to “Lucifer yellow CH di-potassium salt [LY]”, the “substrate of transporters in the membrane (influx or efflux)” value in series [1] is “not a substrate of transporters in the membrane (influx or efflux)”. Besides, the “amount of LY that permeates through Caco-2 monolayers” value with Caco-2 monolayers is recorded as 0.27%.
